Laboratory results reported in patent publication US20080318268A1, “Devices and Methods for the Selection of Agents with Efficacy Against Biofilm” (priority 2005, published 2008).
Where two headings read alike, the source gives them in different places.

What was measured:
[1] = test system: planktonic cultures of C. albicans; assay: Planktonic antifungal sensitivity (MIC, MFC) of C. albicans; assay type: cell-based, Candida albicans
Protocol: (§1) Three clinical isolates of Candida were used in this study, including one albicans and two non-albicans species. C. albicans ATCC 14053 was obtained from the University Of Calgary, Department Of Biological Sciences. C. tropicalis 99916 and C. glabrata 14326 were obtained from the dialysate of patients undergoing continued ambulatory peritoneal dialysis (CAPD). Aspergillus fumigatus was also tested.
Biofilm susceptibility testing uses the pegged lid of the assembly, now containing biofilms formed after rocking in the tray for 24 hour. Each peg on the lid was gently washed once in 200 μl of phosphate buffered saline solution (PBSS) in a 96-well microtiter plate (Falcon). The pegged lid was then transferred to another 96 well microtiter plate containing 2 fold dilutions antifungal agent in 200 μl of RPMI 1640 (Sigma, St. Louis, Mo.) or RPMI 1640 containing 1% DMSO (see test drug section). After the pegs were exposed to the drugs for 24 hours, the pegged lid was removed and gently rinsed twice in saline. The pegged lid was then placed on a 96 well plate containing RPMI 1640 recovery medium. The pegs were sonicated for 5 minutes (Candida spp.) or 7 minutes (Aspergillus) in an ultrasonicator to dislodge adherent cells into the recovery medium. Aliquots of 20 μl of the recovery medium were spot plated on SDA (Candida spp) or Rose Bengal Agar (A. fumigatus) to obtain the MBEC. […] The turbidity of the wells that contained the antibiotic and planktonic cells which were shed from the biofilm was measured at 650 nm to obtain the MIC. […]
(§2) Minimum Inhibitory Concentrations (MIC) and Minimum Fungicidal Concentrations (MFC) were determined according to the guidelines of the National Committee for Clinical laboratory Standards (NCCLS). […]
(§3) The test wells were then incubated at 37° C. for 24 hours with the antifungal drugs. MICs for Candida were obtained after incubation by reading the turbidity at 650 nm on a microtiter plate reader (Softmax, VWR). […] MFCs were determined for Aspergillus by plating 100 μl from each well onto Rose Bengal Agar, followed by spreading with a sterile glass spreader. […]

[2] = test system: invasive pulmonary, sinus and cerebral aspergillosis; conditions: cited from earlier work
planktonic Candida cells = assay: Planktonic antifungal sensitivity of Candida spp.; assay type: cell-based; conditions: all species tested
Protocol: as §1
(§4) Biofilm susceptibility testing uses the pegged lid of the assembly, now containing biofilms formed after rocking in the tray for 24 hour. Each peg on the lid was gently washed once in 200 μl of phosphate buffered saline solution (PBSS) in a 96-well microtiter plate (Falcon). The pegged lid was then transferred to another 96 well microtiter plate containing 2 fold dilutions antifungal agent in 200 μl of RPMI 1640 (Sigma, St. Louis, Mo.) or RPMI 1640 containing 1% DMSO (see test drug section). After the pegs were exposed to the drugs for 24 hours, the pegged lid was removed and gently rinsed twice in saline. The pegged lid was then placed on a 96 well plate containing RPMI 1640 recovery medium. The pegs were sonicated for 5 minutes (Candida spp.) or 7 minutes (Aspergillus) in an ultrasonicator to dislodge adherent cells into the recovery medium. Aliquots of 20 μl of the recovery medium were spot plated on SDA (Candida spp) or Rose Bengal Agar (A. fumigatus) to obtain the MBEC. The assembly was also used to determine the minimum inhibitory concentration (MIC) and minimum fungicidal concentration (MFC). The turbidity of the wells that contained the antibiotic and planktonic cells which were shed from the biofilm was measured at 650 nm to obtain the MIC. A 20 μl sample from each well was also spot plated onto Sabouraud Dextrose agar (Candida spp) or Rose Bengal Agar (A. fumigatus) to obtain the MFC.
Minimum Inhibitory Concentrations (MIC) and Minimum Fungicidal Concentrations (MFC) were determined according to the guidelines of the National Committee for Clinical laboratory Standards (NCCLS). Briefly, Candida sp. were maintained on polystyrene spheres at −70° C. until plating. These organisms were streaked onto Sabouraud Dextrose agar (Microbiologie) plates 24 hours before test initiation. The 24 hour colonies were picked from the agar plates and placed in Muellar-Hinton Broth (MHB, Microbiologie) such that the turbidity matched a McFarland standard of 0.5. This was then diluted 1:10 in MHB to obtain a suspension of approximately 1×10^5 to 5×10^5 CFU/ml. A 5 μl volume of this suspension was added to wells containing 200 μl of antifungal agent serially diluted in RPMI 1640 media (Sigma) in a 96 well microtiter plate (Nunclon). A. fumigatus was maintained as a spore suspension at 4° C. until testing. The spore suspension (50 μl) was diluted into 250 ml of TSB, and 5 μl of this suspension was added to each test well containing dilution of antifungal agent as above.
The test wells were then incubated at 37° C. for 24 hours with the antifungal drugs. MICs for Candida were obtained after incubation by reading the turbidity at 650 nm on a microtiter plate reader (Softmax, VWR). A 20 μl aliquot of each well was also plated (SDA) and MFCs obtained from them after 24 hours incubation at 37° C. MFCs were determined for Aspergillus by plating 100 μl from each well onto Rose Bengal Agar, followed by spreading with a sterile glass spreader. The plated organisms were maintained at 25° C. for three days before colony enumeration.
Drugs tested. Itraconazole, Fluconazole, and Ketoconazole were obtained from Janssen Pharmaceuticals in Brussels, Belgium. Nystatin 5-Fluorocytosine, Griseofulvin, Amphotericin B and Polymyxin B were obtained from Sigma Chemical Co, St. Louis, Mo. 5-Fluorocytosine, polymyxin B sulphate and nystatin were dissolved in double-distilled water to a concentration of 10.24 mg/ml and diluted in the test wells through a range of 1024 μg/ml to 0.125 μg/ml in RPMI. […]

[3] = cited from earlier work
[4] = test system: biofilm cells of C. albicans; assay: Minimum biofilm eradication concentration assay, C. albicans biofilm; assay type: cell-based, Candida albicans
Protocol: as §1
Biofilm formation and measurement of antimicrobial sensitivity of Candida and Aspergillus biofilms were performed using an assembly of the present invention. The device features a microtiter plate lid with 96 pegs or projections distributed on the lid. Each peg provided the surface for microorganism to adhere, colonize and form a uniform biofilm. The pegs fit precisely into the wells of a standard 96-well microtiter plate. The lid was used in conjunction with a base having special troughs for growing, washing, and incubating fungi. […] It was determined in preliminary experiments that C. glabrata required 10% CO2 atmosphere for biofilms to form.
Biofilm susceptibility testing uses the pegged lid of the assembly, now containing biofilms formed after rocking in the tray for 24 hour. […] The turbidity of the wells that contained the antibiotic and planktonic cells which were shed from the biofilm was measured at 650 nm to obtain the MIC. […]

Candida biofilms = assay: Minimum biofilm eradication concentration assay, Candida spp. biofilms; assay type: cell-based
Protocol: as §1
Biofilm formation and measurement of antimicrobial sensitivity of Candida and Aspergillus biofilms were performed using an assembly of the present invention. The device features a microtiter plate lid with 96 pegs or projections distributed on the lid. Each peg provided the surface for microorganism to adhere, colonize and form a uniform biofilm. The pegs fit precisely into the wells of a standard 96-well microtiter plate. The lid was used in conjunction with a base having special troughs for growing, washing, and incubating fungi. Colonies of Candida sp. were picked from 24 hour cultures on Sabouraud Dextrose agar (SDA) (BBL Microbiological Systems, Cockeysville, Md.) and placed into Mueller-Hinton Broth (MHB) (Difco Laboratories, Detroit Mich.) such that the suspension matched a McFarland standard of 1.0. This suspension was then diluted 1:30 in MHB, and 25 ml were pipetted into the trough chamber of the base. The closed assembly (lid with pegs positioned on the base) was placed on a Hoeffer Red Rocker (VWR, Scientific) set to rock the plates 3.5 cycles per minute in a 37° C. incubator. C. albicans and C. tropicalis were incubated aerobically, while C. glabrata was incubated in 10% CO2. It was determined in preliminary experiments that C. glabrata required 10% CO2 atmosphere for biofilms to form.
as §4
Drugs tested. Itraconazole, Fluconazole, and Ketoconazole were obtained from Janssen Pharmaceuticals in Brussels, Belgium. Nystatin 5-Fluorocytosine, Griseofulvin, Amphotericin B and Polymyxin B were obtained from Sigma Chemical Co, St. Louis, Mo. […]

C. tropicalis = assay: Planktonic antifungal sensitivity (MIC) of C. tropicalis; assay type: cell-based, Candida tropicalis; conditions: C. tropicalis strain tested
Protocol: as §1
Biofilm susceptibility testing uses the pegged lid of the assembly, now containing biofilms formed after rocking in the tray for 24 hour. Each peg on the lid was gently washed once in 200 μl of phosphate buffered saline solution (PBSS) in a 96-well microtiter plate (Falcon). […] The turbidity of the wells that contained the antibiotic and planktonic cells which were shed from the biofilm was measured at 650 nm to obtain the MIC. […]
as §2, §3

[5] = test system: Pseudomonas aeruginosa (Ps) biofilm; assay: MBEC assay, Ps biofilms (Example 5); assay type: cell-based; conditions: number of resistant isolates; 12 isolates from Cystic Fibrosis patients; exposed 24 hours
[6] = test system: Pseudomonas aeruginosa (Ps) planktonic bacteria; assay: MBEC assay, planktonic Ps isolates (Example 5); assay type: cell-based; conditions: number of resistant isolates; 12 isolates from Cystic Fibrosis patients; exposed 24 hours
[7] = test system: planktonic Staphylococcus aureus; assay: Staphylococcus test plate, planktonic forms (Example 9); assay type: cell-based; conditions: breakpoint concentrations, number in the label is the concentration tested
[8] = test system: Staphylococcus aureus (Staph) planktonic bacteria; assay: MBEC assay, planktonic Staph isolates (Example 5); assay type: cell-based; conditions: number of resistant isolates; 12 isolates from device associated infections; exposed 24 hours
planktonic P. aeruginosa = assay: Pseudomonas aeruginosa biofilm assay kit, planktonic MIC reading of challenge plate (Example 8); assay type: cell-based; conditions: challenge 24 hours at 35° C.; breakpoint concentrations
P. aeruginosa biofilm = assay: Pseudomonas aeruginosa biofilm assay kit, biofilm MBEC reading of recovery plate (Example 8); assay type: cell-based; conditions: challenge 24 hours at 35° C.; recovery 20 to 24 hours; breakpoint concentrations
[9] = test system: Staphylococcus aureus (Staph) biofilm; assay: MBEC assay, Staph biofilms (Example 5); assay type: cell-based; conditions: number of resistant isolates; 12 isolates from device associated infections; exposed 24 hours
[10] = test system: Staphylococcus aureus biofilm; assay: Staphylococcus test plate, biofilm forms (Example 9); assay type: cell-based; conditions: breakpoint concentrations, number in the label is the concentration tested
[11] = planktonic cultures of C. albicans

C[C@@H]1[C@H](O)[C@@H](C)/C=C/C=C/C=C/C=C/C=C/C=C/C=C/[C@H](O[C@@H]2O[C@H](C)[C@@H](O)[C@H](N)[C@@H]2O)C[C@@H]2O[C@](O)(C[C@@H](O)C[C@@H](O)[C@H](O)CC[C@@H](O)C[C@@H](O)CC(=O)O[C@H]1C)C[C@H](O)[C@H]2C(=O)O [amphotericin B, Amphotericin B]
average MFC [1, 11]: 0.02 µg/mL
average MIC [1, 11]: 0.09 µg/mL
cases that show any response ([2]; 14 days of treatment): 54%
crude mortality rate ([2]; patients treated for invasive cerebral aspergillosis): 99%
crude mortality rate ([2]; patients treated for invasive pulmonary aspergillosis): 86%
crude mortality rate ([2]; patients treated for invasive sinus aspergillosis): 66%
effectiveness in killing planktonic Candida cells (planktonic Candida cells): effective
peak permissible human serum concentrations [3]: 2 µg/mL
average concentration required to kill biofilm cells [4]: 12 µg/mL
MBEC (Candida biofilms; Candida biofilms): 16 µg/mL
effectiveness against Candida growing as a biofilm (Candida biofilms; biofilm (sessile) Candida): most effective agents

OC(Cn1cncn1)(Cn1cncn1)c1ccc(F)cc1F [fluconazole, Fluconazole]
classification by fluconazole MIC criterion (less than or equal to 8 μg/ml = susceptible) ([1]; C. albicans strain tested): susceptible
effectiveness in killing planktonic Candida cells (planktonic Candida cells): effective
classification by fluconazole MIC criterion (less than or equal to 8 μg/ml = susceptible) (C. tropicalis): susceptible

gentamicin [GM]
Ps resistance to individual antibiotics and antibiotic combinations, Biofilm [5]: 12
Ps resistance to individual antibiotics and antibiotic combinations, Planktonic [6]: 8
Number of Staphylococcus aureus isolates resistant to individual antibiotics and antibiotic combinations, Planktonic ([7]; listed as GM2): 4
Number of Staphylococcus aureus isolates resistant to individual antibiotics and antibiotic combinations, Planktonic ([7]; listed as GM4): 3
Staph resistance to individual antibiotics and antibiotic combinations, Planktonic [8]: 6
Number of P. aeruginosa isolates resistant to individual antibiotics and antibiotic combinations, Planktonic (planktonic P. aeruginosa): 8
Number of P. aeruginosa isolates resistant to individual antibiotics and antibiotic combinations, Biofilm (P. aeruginosa biofilm): 12
Staph resistance to individual antibiotics and antibiotic combinations, Biofilm [9]: 10
Number of Staphylococcus aureus isolates resistant to individual antibiotics and antibiotic combinations, Biofilm ([10]; listed as GM2): 11
Number of Staphylococcus aureus isolates resistant to individual antibiotics and antibiotic combinations, Biofilm ([10]; listed as GM4): 10

CN[C@H](CC(C)C)C(=O)N[C@H]1C(=O)N[C@@H](CC(N)=O)C(=O)N[C@H]2C(=O)N[C@H]3C(=O)N[C@H](C(=O)N[C@H](C(=O)O)c4cc(O)cc(O)c4-c4cc3ccc4O)[C@H](O)c3ccc(c(Cl)c3)Oc3cc2cc(c3O[C@@H]2O[C@H](CO)[C@@H](O)[C@H](O)[C@H]2O[C@H]2C[C@](C)(N)[C@H](O)[C@H](C)O2)Oc2ccc(cc2Cl)[C@H]1O [VAN, vancomycin]
Number of Staphylococcus aureus isolates resistant to individual antibiotics and antibiotic combinations, Planktonic ([7]; listed as VAN2): 5
Number of Staphylococcus aureus isolates resistant to individual antibiotics and antibiotic combinations, Planktonic ([7]; listed as VAN4): 1
Staph resistance to individual antibiotics and antibiotic combinations, Planktonic [8]: 6
Staph resistance to individual antibiotics and antibiotic combinations, Biofilm [9]: 12
Number of Staphylococcus aureus isolates resistant to individual antibiotics and antibiotic combinations, Biofilm [10]: 12
